According to patent US20130190404A1, “CRYSTALS OF CARBOPROST TROMETHAMINE AND THE PREPARATION METHOD AS WELL AS THE USES THEREOF” (SHANGHAI TECHWELL BIOPHARMACEUTICAL CO., LTD., priority 2010, published 2013):

Experiment: Purity and stability test: content of impurities by HPLC after sealed storage at 25° C. for 7 days
Format: physicochemical
Details: for Content of impurities after stored at 25° C. for 7 days: sealed storage; for Content of impurities after stored at 25° C. for 7 days / Initial content of impurities: HPLC; for Initial content of impurities: before storage (baseline of the stability test)
Description: In the following examples, high performance liquid chromatography (HPLC) method (European Pharmacopoeia) used for detecting the purity of the crystal of arboprost tromethamine obtained are listed as follows:
Stationary phase: silica gel, particle size 5-μm
Mobile phase: acetonitrile:aqueous Sodium Dihydrogen Phosphate (pH=2.5)=23:77 (V/V)
Column temperature: 35° C.
Detection wavelength: 200 nm
In the present example, the samples from the comparative-example and examples were test for purity and stability. The method for testing is described as follows:
The samples from comparative-example 1, example 2 and example 4 were obtained and kept at 25° C. for 7 days in sealed storage. And then the content of impurities in each sample was tested.

Row | Content of impurities after stored at 25° C. for 7 days [%] | Initial content of impurities [%] | stability after storage (in words) (after stored for a long time, conclusion from the table) | SMILES
1 | 0.3 | 0.3 | – | CCCCC[C@](C)(O)/C=C/[C@@H]1[C@@H](C/C=C\CCCC(=O)O)[C@@H](O)C[C@H]1O [Example 2, carboprost tromethamine]
2 | 0.2 | 0.2 | – | CCCCC[C@](C)(O)/C=C/[C@@H]1[C@@H](C/C=C\CCCC(=O)O)[C@@H](O)C[C@H]1O [Example 4, carboprost tromethamine]
3 | 4.0 | 0.5 | – | CCCCC[C@](C)(O)/C=C/[C@@H]1[C@@H](C/C=C\CCCC(=O)O)[C@@H](O)C[C@H]1O [compound 1, carboprost tromethamine]
4 | – | – | excellent stability | CCCCC[C@](C)(O)/C=C/[C@@H]1[C@@H](C/C=C\CCCC(=O)O)[C@@H](O)C[C@H]1O [crystal of carboprost tromethamine, 2-amino-2-(hydroxymethyl)propan-1,3-diol(5Z)-7-[(1R,2R,3R,5S)-3,5-dihydroxy-2-[(1E,3S)-3-hydroxy-3-methyl-1-octene]cyclopentyl]-5-heptylic acid]
